For orientation: IC50 means the midpoint of a concentration-inhibition curve.

16 compounds from patent US20230037448A1, “FLUORINATED QUINOLINE AND QUINOXALINE DERIVATIVES AS DIHYDROOROTATE DEHYDROGENASE (DHODH) INHIBITORS FOR THE TREATMENT OF CANCER, AUTOIMMUNE AND INFLAMMATORY DISEASES” (Janssen Biotech, Inc., priority 2019, published 2023) can be followed below.

One assay has as its target T1, human DHODH (Homo sapiens, UniProt Q02127).
T1 construct: purchased Proteros PR-0044
Put plainly: DHODH Enzymatic Assay. The following applies: purified human DHODH; DCIP absorbance, end-point mode. It counts as biochemical. Here is the method:
To detect DHODH enzyme activities, dichloroindophenol (DCIP) is added as the final electron acceptor in the assay. DCIP can accept electrons from the reduced coenzyme Q generated in the assay, or from dihydroorotate (DHO) via FMN by binding presumably to the ubiquinone pocket. DCIP solutions are blue, with an intense absorbance around 600 nm, but becomes colorless upon reduction (J. Biol. Chem. (1986) 261, 11386). The assay buffer contained […], pH 7.5, 150 mM NaCl, 0.5 mM EDTA, and 0.1% Triton X-100 in MilliQ water. Substrate consisting of 20 mM DHO, 5 mM CoQ6, and 1 mM DCIP in assay buffer, initiates the reaction. The assay is run in end-point mode by quenching the reaction with the potent DHODH inhibitor brequinar. Absorbance measurements were obtained using the BMG Phera Star plate-reading spectrophotomer. Purified human DHODH was purchased from Proteros (cat. No. PR-0044). Chemicals were purchased from Sigma-Aldrich, Teknova, and Avanti Polar Lipids. Liquid handling was performed using Labcyte Echo and Formulatrix Tempest.

Another assay concerns MOLM-13 cells. Put plainly: MOLM-13 Cellular Assay. It counts as cell-based. The following applies: 72 hours exposure, cell viability by CellTiter-Glo. Here is the method:
MOLM-13 cells were obtained from DSMZ and were maintained in RPMI 1640+Glutamax+25 mM HEPES (Invitrogen, catalog number 72400) supplemented with 10% heat inactivated fetal bovine serum (FBS; Invitrogen, catalog number 16140). The day prior to assay set-up, cells were pelleted, resuspended in fresh media, counted, and cells were plated at 0.4×10^6 cell/mL in a T150 flask. On the day of the assay, cells were pelleted, resuspend in fresh media, counted, and seeded at 5,000 cells/well in white opaque 96-well tissue culture treated microplates (Perkin Elmer, catalog number 6005680). Cells were exposed to different concentrations of test compounds at 37° C., 5% CO2 for 72 hours immediately after seeding. Cell viability was acquired on a Perkin Elmer Envision 2104 multilabel reader using the CellTiter-Glo assay (Promega) according to the manufacturer's instructions.
(ATP-based viability assays read luminescence as a measure of living cells.)

T1 sequence (Q02127 whole entry): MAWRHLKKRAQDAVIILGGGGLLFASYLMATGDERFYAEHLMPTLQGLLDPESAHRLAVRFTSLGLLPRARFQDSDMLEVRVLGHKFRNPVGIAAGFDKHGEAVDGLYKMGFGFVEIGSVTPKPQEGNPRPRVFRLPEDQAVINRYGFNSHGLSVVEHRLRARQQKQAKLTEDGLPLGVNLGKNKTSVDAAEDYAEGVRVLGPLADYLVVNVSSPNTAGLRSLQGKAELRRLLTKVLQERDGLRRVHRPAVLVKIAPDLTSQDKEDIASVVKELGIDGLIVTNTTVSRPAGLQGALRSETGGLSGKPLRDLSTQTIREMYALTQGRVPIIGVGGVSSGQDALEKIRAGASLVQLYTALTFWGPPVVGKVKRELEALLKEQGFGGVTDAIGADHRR

As for `Cc1n[nH]c(C(F)(F)F)c1-c1cc(C(C)C)c2cc(-c3nc(C(C)O)n(C)n3)c(F)cc2n1` (centres unmarked) [Example 29, 1-(3-(7-Fluoro-4-isopropyl-2-(3-methyl-5-(trifluoromethyl)-1H-pyrazol-4-yl)quinolin-6-yl)-1-methyl-1H-1,2,4-triazol-5-yl)ethan-1-ol], the half-inhibitory concentration (IC50) was 1 nM at human DHODH and 0.36 nM in the assay on MOLM-13 cells (Homo sapiens, MOLM-13, 72 h).

As for `CCn1c(CO)nn(-c2cc3c(C(C)C)cc(-c4c[nH]nc4C(F)(F)F)nc3cc2F)c1=O` [Example 23, 4-Ethyl-1-(7-fluoro-4-isopropyl-2-(3-(trifluoromethyl)-pH-pyrazol-4-yl)quinolin-6-yl)-3-(hydroxymethyl)-1H-1,2,4-triazol-5 (4H)-one], the IC50 on human DHODH came out at 14 nM; in the assay with MOLM-13 cells (Homo sapiens, MOLM-13, 72 h), 9 nM.

Take `CCn1c(CO)nn(-c2cc3c(C(C)C)cc(N4CCCCC4)nc3cc2F)c1=O` [Example 14, 4-Ethyl-1-(7-fluoro-4-isopropyl-2-(piperidin-1-yl)quinolin-6-yl)-3-(hydroxymethyl)-1H-1,2,4-triazol-5 (4H)-one]: the IC50 at human DHODH was 120 nM; with MOLM-13 cells (Homo sapiens, MOLM-13, 72 h), 100 nM.

With `Cc1n[nH]c(Cl)c1-c1cc(C(C)C)c2cc(-c3cn(C)c(CO)n3)c(F)cc2n1` [Example 32, (4-(2-(5-Chloro-3-methyl-1H-pyrazol-4-yl)-7-fluoro-4-isopropylauinolin-6-yl)-1-methyl-1H-imidazol-2-yl)methanol], the IC50 was 1.2 nM at human DHODH and 3 nM in the assay on MOLM-13 cells (Homo sapiens, MOLM-13, 72 h).

Consider `CCn1c(CO)nn(-c2cc3c(C(C)C)nc(-c4c(C)n[nH]c4C(F)(F)F)nc3cc2F)c1=O` [Example 34, 4-Ethyl-2-(7-fluoro-4-isopropyl-2-(3-methyl-5-(trifluoromethyl)-1H-pyrazol-4-yl)quinazolin-6-yl)-5-(hydroxymethyl)-2,4-dihydro-3H-1,2,4-triazol-3-one], for which the IC50 at human DHODH was 5.2 nM; in the assay with MOLM-13 cells (Homo sapiens, MOLM-13, 72 h), 4 nM.

For the compound `CCn1c(CO)nn(-c2cc3c(C(C)C)cc(-c4c(Cl)n[nH]c4C)nc3cc2F)c1=O` [Example 2, 1-(2-(3-Chloro-5-methyl-1H-pyrazol-4-yl)-7-fluoro-4-isopropylauinolin-6-yl)-4-ethyl-3-(hydroxymethyl)-1H-1,2,4-triazol-5 (4H)-one], the IC50 at human DHODH worked out at 0.49 nM; in the assay on MOLM-13 cells (Homo sapiens, MOLM-13, 72 h) it was 1.7 nM.

Take `Cc1n[nH]c(Cl)c1-c1cc(C(C)C)c2cc(-c3nc(C(C)O)n(C)n3)c(F)cc2n1` (centres unmarked) [Example 31, 1-(3-(2-(5-Chloro-3-methyl-1H-pyrazol-4-yl)-7-fluoro-4-isopropylauinolin-6-yl)-1-methyl-1H-1,2,4-triazol-5-yl)ethan-1-ol]: the IC50 against human DHODH was found to be 1.6 nM; with MOLM-13 cells (Homo sapiens, MOLM-13, 72 h), 0.83 nM.

`CCn1c(CO)nn(-c2cc3c(C(C)C(F)(F)F)cc(-c4ccccc4C)nc3cc2F)c1=O` (single isomer, unassigned) [Example 36, (S*)-4-Ethyl-1-(7-fluoro-2-(o-tolyl)-4-(1,1,1-trifluoropropan-2-yl)quinolin-6-yl)-3-(hydroxymethyl)-1H-1,2,4-triazol-5 (4H)-one]: the IC50 against human DHODH amounted to 0.32 nM; in the assay on MOLM-13 cells, 0.4 nM.

As for `CCn1c(CO)nn(-c2cc3c(C(C)C)cc(-c4ccccc4C)[n+]([O-])c3cc2F)c1=O` [Example 21, 6-(4-Ethyl-3-(hydroxymethyl)-5-oxo-4,5-dihydro-1H-1,2,4-triazol-1-yl)-7-fluoro-4-isopropyl-2-(o-tolyl)quinoline 1-oxide], the IC50 amounted to 4.6 nM at human DHODH and 5 nM with MOLM-13 cells (Homo sapiens, MOLM-13, 72 h).

As to `Cc1n[nH]c(C(F)(F)F)c1-c1cc(C(C)C)c2cc(-c3cn(C)c(CO)n3)c(F)cc2n1` [Example 33, (4-(7-Fluoro-4-isopropyl-2-(3-methyl-5-(trifluoromethyl)-1H-pyrazol-4-yl)quinolin-6-yl)-1-methyl-1H-imidazol-2-yl)methanol], the IC50 stood at 2 nM at human DHODH and 1 nM in the assay on MOLM-13 cells (Homo sapiens, MOLM-13, 72 h).

On to `CCn1c(CO)nn(-c2cc3c(C(C)C)cc(OC4CCC4)nc3cc2F)c1=O` [Example 6, 1-(2-Cyclobutoxy-7-fluoro-4-isopropylauinolin-6-yl)-4-ethyl-3-(hydroxymethyl)-1H-1,2,4-triazol-5 (4H)-one], for which the IC50 against human DHODH was 1080 nM; in the assay with MOLM-13 cells (Homo sapiens, MOLM-13, 72 h), above 100 nM.

`Cc1n[nH]c(C(F)(F)F)c1-c1cc(C(C)C)c2cc(-c3nc(CO)n(C)n3)c(F)cc2n1` [Example 28, (3-(7-Fluoro-4-isopropyl-2-(3-methyl-5-(trifluoromethyl)-pH-pyrazol-4-yl)quinolin-6-yl)-1-methyl-1H-1,2,4-triazol-5-yl)methanol]: the IC50 was determined as 3 nM on human DHODH and 2 nM with MOLM-13 cells (Homo sapiens, MOLM-13, 72 h).

In the case of `CCN(CC)c1cc(C(C)C)c2cc(-n3nc(CO)n(CC)c3=O)c(F)cc2n1` [Example 13, 1-(2-(Diethylamino)-7-fluoro-4-isopropylquinolin-6-yl)-4-ethyl-3-(hydroxymethyl)-1H-1,2,4-triazol-5 (4H)-one], the IC50 is 270 nM at human DHODH and above 100 nM with MOLM-13 cells (Homo sapiens, MOLM-13, 72 h).

Consider `CCn1c(CO)nn(-c2cc3c(C(C)C(F)(F)F)cc(-c4ccccc4C)nc3cc2F)c1=O` (single isomer, unassigned) [Example 37, (R*)-4-Ethyl-1-(7-fluoro-2-(o-tolyl)-4-(1,1,1-trifluoropropan-2-yl)quinolin-6-yl)-3-(hydroxymethyl)-1H-1,2,4-triazol-5 (4H)-one], for which the values for the IC50 at human DHODH and in the assay on MOLM-13 cells were 5.3 nM and 1 nM, respectively.

Consider `CCn1c(CO)nn(-c2cc3c(C(C)C)cc(-c4c(Cl)c(O)nn4C)nc3cc2F)c1=O` [Example 25, 2-(2-(4-Chloro-3-hydroxy-1-methyl-1H-pyrazol-5-yl)-7-fluoro-4-isopropylquinolin-6-yl)-4-ethyl-5-(hydroxymethyl)-2,4-dihydro-3H-1,2,4-triazol-3-one], for which the IC50 against human DHODH was determined as 11 nM; in the assay with MOLM-13 cells (Homo sapiens, MOLM-13, 72 h), 6 nM.

Turning to `C=C(C)c1cc(-c2ccccc2C)nc2cc(F)c(-n3nc(CO)n(CC)c3=O)cc12` [Example 39, 4-Ethyl-1-(7-fluoro-4-(prop-1-en-2-Yl)-2-(o-tolyl)quinolin-6-yl)-3-(hydroxymethyl)-1H-1,2,4-triazol-5 (4H)-one], the IC50 against human DHODH was 0.24 nM; in the assay on MOLM-13 cells (Homo sapiens, MOLM-13, 72 h), 0.2 nM.
